Measured values published in patent US20180133211A1, “METHODS AND MATERIALS FOR PROMOTING BONE FORMATION” (Mayo Foundation for Medical Education and Research, priority 2015, published 2018).

How the values were obtained:
female C57BL/6 mice = assay: Bone histomorphometry of distal femur after 5 weeks of GSK126; assay type: in vivo, mouse; settings: for N.Ob/B.pm / N.Ob/T.Ar / N.Oc/B.Pm / N.Oc/T.Ar / Ob.S/BS / Oc.S/BS: mean
Description: Female C57BL/6 mice (Harlan Laboratories) were maintained on a 12-hour light/12-hour dark cycle and were permitted ad libitum access to food and water. For efficacy studies, 6-week old mice received daily intraperitoneal (IP) injections of GSK126 at 15 mg/kg, 50 mg/kg, or vehicle (DMSO) in 20% Captisol adjusted to pH 4-4.5 with IN acetic acid (McCabe et al., Nature, 492:108-112 (2012)) for 5 weeks.
The dosage, delivery schedule, and administration route were similar to those described elsewhere (McCabe et al., Nature, 492:108-112 (2012)). Animals were weighed daily. To label mineralizing bone surfaces, mice received subcutaneous injections of calcein (10 mg/kg) 5 days and 24 hours before euthanasia.
The right distal femur was processed for static and dynamic histomorphometry as described elsewhere (McGee-Lawrence et al., Bone, 48:1117-1126 (2011)). Thin (5 μm) sections were stained with Von Kossa/McNeal's tetrachrome to highlight osteoblast surfaces and Goldner's trichrome to examine mineralizing surface and bone surfaces. Osteoclasts were detected using TRAP staining. Unstained sections were used for assessment of dynamic histomorphometry and bone area. Slides were digitized under 40× magnification using Mikroscan D2 digital whole slide scanner and Q-Skan software (Mikroscan Technologies). Beginning 450 μm proximal to the growth plate, mineralizing surface (MS/BS, %/day), mineral apposition rate (MAR, μm/day), bone formation rate (BFR/BV, %/day), osteoblast surface/bone surface (Ob.S/BS, %), osteoblast number/bone perimeter (N.Ob/B.Pm, #/mm), osteoclast surface/bone surface (Oc.S/BS, %), and osteoclast number/bone perimeter (N.Oc/B.Pm, #/mm) were quantified using Image J software as described elsewhere (Schneider et al., Nat. Methods, 9:671-675 (2012) and Egan et al., Histopathology, 61:1168-1173 (2012)).

[1] = system: Runx2 protein in MC3T3-E1 cells; assay: Runx2 immunoblotting; assay type: cell-based, mouse; settings: MC3T3-E1, 3 μM, after both 24 hours and 14 days
Description: Whole cell protein extracts were prepared using SDS sample buffer (2% SDS, 100 mM β-mercaptoethanol and 125 mM Tris-HCl, pH=6.8) and heated at 95° C. for 5 minutes. To obtain supernatant protein extracts, cell medium was collected, and proteins were precipitated with 50% trichloroacetic acid at 4° C. for 1 hour, concentrated by centrifugation, neutralized with PBS, and dissolved in SDS sample buffer.
For immunoblotting analysis, 15 μg of protein extracts were separated on 10% SDS poly-acryl amide gels, transferred to nitrocellulose membranes (Millipore), and blocked overnight with 10% blocking reagent (Roche) in TN buffer (50 mM Tris and 125 mM NaCl, pH=8.0). The following primary antibodies were used: rabbit, anti-Runx2 (sc-10758, Santa Cruz Biotechnologies, Santa Cruz, Calif.) and rabbit, anti-β-Actin (#4967, Cell Signaling, Danvers, Mass., USA). Washing was performed with TN buffer containing 0.01% Tween. Binding of the secondary antibody (anti-rabbit IgG/anti-mouse IgG horseradish peroxidase-coupled) (Roche) diluted 1:10,000 in 10% blocking solution followed by detection with the BM chemo-luminescence immunoblotting kit (Roche) was carried out as described by the supplier. Chemo-luminescence was measured with an image acquisition system (Vilber Lourmat, Marne-la-Vallée, France). Measurements are given as means of 3 immuno-blots, and representative blots are shown.

BMSCs = assay: RT-qPCR mRNA expression; assay type: cell-based, mouse
Description: Mouse bone marrow mesenchymal stem cells were isolated from aseptically dissected long bones of 6-week old C57BL/6 mice (Himberg, Austria). The marrow cavities were flushed with sterile medium using a 25-gauge needle, and the culture was established in α-MEM supplemented with 10% FCS and […]. After 48 hours of culture at 5% CO2 and 37° C., the non-adherent cells were removed by gentle rinsing with PBS. At confluence, cells were harvested and seeded at a density of 3,000/cm^2 for cell experiments. […]
Total RNA was extracted using the SV Total RNA Isolation kit (Promega) following the supplier's instructions. cDNA was synthesized from about 0.5 μg RNA using the First Strand cDNA Synthesis kit (Roche) as described by the supplier. The resulting cDNAs were subjected to quantitative PCR amplification with a real-time cycler using the QUANTITECT™ SYBR® Green PCR Kit (Qiagen, Hilden, Germany) for the genes Alpl, Fas, Lox, Tet1, Tet2, and TAQMAN® Gene expression Master Mix (Applied Biosystems, Foster City, Calif., USA) for measuring Runx2, Bglap2, Colla1, Tnfsf11, and 18S rRNA expression (for primers, see Table 1). […] All RT-qPCR assays were performed in triplicate, and expression was evaluated using the comparative quantification method (Pfaffl, Nucleic Acids Res., 29:e45 (2001)).

[2] = distal femoral metaphysis, 15 mg/kg
[3] = distal femoral metaphysis, 50 mg/kg

In the case of `CC[C@H](C)n1cc(C)c2c(C(=O)NCc3c(C)cc(C)[nH]c3=O)cc(-c3ccc(N4CCNCC4)nc3)cc21` [GSK126, N-[(1,2-dihydro-4,6-dimethyl-2-oxo-3-pyridinyl)methyl]-3-methyl-1-[(1S)-1-methylpropyl]-6-[6-(1-piperazinyl)-3-pyridinyl]-1H-indole-4-carboxamide], the N.Ob/B.pm (female C57BL/6 mice; [2]) is reported as 0.028 #/mm, the N.Ob/T.Ar (female C57BL/6 mice; [2]) is reported as 0.109 and the N.Oc/B.Pm (female C57BL/6 mice; [2]) is reported as 0.015 #/mm. The N.Oc/T.Ar (female C57BL/6 mice; [2]) was 0.042, the Ob.S/BS (female C57BL/6 mice; [2]) was 0.354% and the N.Ob/B.pm (female C57BL/6 mice; [3]) was 0.040 #/mm. The N.Ob/T.Ar (female C57BL/6 mice; [3]) was 0.081, the N.Oc/B.Pm (female C57BL/6 mice; [3]) was 0.018 #/mm and the N.Oc/T.Ar (female C57BL/6 mice; [3]) was 0.050. For the same compound, the Ob.S/BS (female C57BL/6 mice; [3]) was 0.551%, the “interlabel thickness (Ir.L.Th), mineral apposition rate (MAR) and bone formation rate (BFR)” value (female C57BL/6 mice; dynamic histomorphometry, GSK126 50 mg/kg vs vehicle) was “enhanced” and the Oc.S/BS (female C57BL/6 mice; static histomorphometry, distal femoral metaphysis, 15 mg/kg) was 0.314%. For the same compound, the Oc.S/BS (female C57BL/6 mice; static histomorphometry, distal femoral metaphysis, 50 mg/kg) was 0.240%, the “osteoblast surface area per bone surface area (Ob.S/BS)” value (female C57BL/6 mice; static histomorphometry, distal femoral metaphysis, in words (FIG. 19C)) was “increase” and the “number of osteoblasts per bone perimeter (N. Ob./B.Pm)” value (female C57BL/6 mice; static histomorphometry, distal femoral metaphysis, in words (FIG. 19D)) was “increase”.
For `C[S+]([O-])CCCCN=C=S` (racemic) [DL-SFN], the Runx2 protein expression [1] was “significant increase”, the “Bglap2 mRNA expression” value (BMSCs) was “up regulated” and the “Runx2 mRNA expression” value (BMSCs; 3 μM) was “stimulates”.
